Assay results: patent US10071103B2, “Treatments for resistant acne” (VYOME BIOSCIENCES PVT. LTD., priority 2014, dated 2018)
Converted amounts (≈) assume the structure as drawn. Where two headings read alike, the source gives them in different places.

Tests used:
[1] = tested on: P. acnes clinical isolates; assay: MIC of P. acnes isolated from acne patients (clinical isolates); details: Cutibacterium acnes, clinical isolate susceptible to clindamycin and erythromycin;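 note: anaerobic 96-well plate assay at 37 °C over 72 h, with Alamar blue dye as read-out; MIC in µg/mL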
Experimental: P. acnes were cultured in Brain Heart Infusion Agar (BHIA) at 37° C. for 48 hours under anaerobic condition. […] For bacterial inoculum, P. acnes culture turbidity was adjusted to 0.5 McFarland standard (approximately 1.5×10^8) and further diluted (100 times with sterile BHI broth). Diluted P. acnes suspension (100 μl) was added to each well except sterility control wells (column 12 of 96 well plate). Inoculated plates were incubated at 37° C. for 72 hours under anaerobic condition. After incubation, MIC was determined by adding Alamar blue dye.

[2] = tested on: P. acnes MTCC 1951; format: cell-based, Propionibacterium acnes; details: for MPC: P. acnes, 10^10 cells inoculum; for MPC/MIC: ratio against P. acnes
Experimental: 3 to 4 Petri plates containing 48 h P. acnes culture was suspended in sterile Phosphate buffer saline, PBS (pH 7.2) and turbidity was adjusted to optical density of 1 at 600 nm (10^9 cells/ml). 50 ml of this culture suspension was centrifuged at 4000 rpm for 40 min. The supernatant was discarded and pellet resuspended in 250 μl of sterile PBS. 50 μl of these cell suspensions (10^10 cells) was spread over the plates containing various concentrations of antibiotics (around MIC range). Plates were incubated at 37° C. for 48 h and the lowest concentration of the drug that allowed no growth was taken as its MPC.

[3] = tested on: P. acnes MTCC 1951; assay: MIC by micro broth dilution (Alamar blue), clindamycin-susceptible P. acnes; format: cell-based, Propionibacterium acnes; details: Cutibacterium acnes, MTCC1951; Table 7; against P. acnes; read-out: MIC
Experimental: (§1) The plates were incubated at 37° C. for 48 h under anaerobic condition for P. acnes and 37° C. for 24 h for S. aureus The plates were read under Bio-Rad plate reader at 595 nm for optical density to generate the dose-response curves. The MIC of the test compound was recorded by addition of Alamar blue dye.
(§2) P. acnes (MTCC 3297, MTCC 1951& CCARM 9010) are cultured in Brain Heart Infusion (BHI) Broth at 37° C. for 48-72 h under anaerobic condition. The test compounds/formulations are initially diluted with suitable solvent and further diluted with BHI broth to get the required concentrations. Samples (100 μl) of different concentrations (prepared by serial dilution) are added to 96-well plate. To the wells, 100 μl of P. acnes BHI broth culture is added [culture turbidity adjusted against 0.5 McFarland standard (approx 1.5×10^8), and further diluted 100-fold with sterile BHI broth]. In addition Growth Control and Sterility Control are created using 100 μl each of P. acnes BHI broth culture and plain BHI broth, respectively.
(§3) Plates are incubated at 37° C. for 48-72 hrs under anaerobic condition. The plate is read under Bio-Rad plate reader @ 595 nm for optical density to generate the dose-response curves. The MIC of the test compound is recorded by addition of Alamar blue dye.
BHI broth and BHI agar media were prepared as per the manufacturer's instruction and autoclaved at 121° C. for 15 minutes. […] For MIC determination testing, gels are dissolved in the solvent and further diluted with BHI broth. Then, 96 wells plate are filled with 100 μl of BHI broth containing drug with different concentration to get the final concentrations of 0.06, 0.13, 0.25, 0.5, 1 and 2 μg/ml in different lanes (lane 1 to lane 6). Remaining lanes of the 96 well plate are used as growth control and sterility control. Finally, P. acnes culture suspension (approx 1.5×10^6) is added in all the wells except sterility control wells and plate is incubated at 37° C. for 48-72 h under anaerobic condition. At the end of 72 h, Alamar blue solution (20 μl) is added into the wells and incubated at 37° C. for 2 h. Plate is visualized for bacterial inhibitions and MIC values of the tested samples are determined. […]

[4] = tested on: P. acnes CCARM 9010; assay: MIC by micro broth dilution (Alamar blue), clindamycin-resistant/nonresponsive P. acnes; format: cell-based, Propionibacterium acnes; details: clindamycin-nonresponsive CCARM 9010
Experimental: as §1, §2, §3

Compound `CN(C)c1ccc(O)c2c1C[C@H]1C[C@H]3[C@H](N(C)C)C(O)=C(C(N)=O)C(=O)[C@@]3(O)C(O)=C1C2=O` [Minocycline, minocycline] has an MIC ([1]; P. acnes strain V2-9) of 0.06 µg/mL, an MIC ([1]; P. acnes strain V2-10) of 0.06 µg/mL and an MIC ([1]; P. acnes strain V3-9) of 0.06 µg/mL. It also gave an MIC ([1]; P. acnes strain V3-10) of 0.06 µg/mL, an MIC ([1]; P. acnes strain V4-6) of 0.06 µg/mL and an MIC ([1]; P. acnes strain V4-8) of 0.06 µg/mL. It also gave an MIC ([1]; P. acnes strain V4-13) of 0.06 µg/mL, an MIC ([1]; P. acnes strain V5-2) of 0.06 µg/mL and an MIC ([1]; P. acnes strain V5-5) of 0.06 µg/mL. It also gave an MIC ([1]; P. acnes strain V5-7) of 0.06 µg/mL, an MIC ([1]; P. acnes strain V6-5) of 0.06 µg/mL and an MIC ([1]; P. acnes strain V6-6) of 0.06 µg/mL. The MIC ([1]; P. acnes strain V6-7) was 0.06 µg/mL, the MIC ([1]; P. acnes strain V7-3) was 0.06 µg/mL and the MIC ([1]; P. acnes strain V7-4) was 0.06 µg/mL. It also gave an MIC ([1]; P. acnes strain V7-14) of 0.06 µg/mL.

With `CC1CCc2c(N3CCC(O)CC3)c(F)cc3c(=O)c(C(=O)O)cn1c23` (stereo not drawn) [Nadifloxacin] the MPC [2] was 1.2 µg/mL, the MPC/MIC [2] was 9.2 and the MPC/MIC ([2]; listed as nadifloxacin) was roughly 8. It also gave an MIC [3] of 0.13 µg/mL (≈ 0.361 µM).

For `CC[C@H]1OC(=O)[C@H](C)[C@@H](O[C@H]2C[C@@](C)(OC)[C@@H](O)[C@H](C)O2)[C@H](C)[C@@H](O[C@@H]2O[C@H](C)C[C@H](N(C)C)[C@H]2O)[C@](C)(O)C[C@@H](C)/C(=N\OCOCCOC)[C@H](C)[C@@H](O)[C@]1(C)O` [Roxithromycin], the “Activity / bacterial killing, dose response curve (in words)” value [4] was “resistant”.

For `CC1Sc2c(C(=O)O)c(=O)c3cc(F)c(N4CCNCC4)cc3n21` (stereo not drawn) [Ulifloxacin], the MPC [2] was 1.2 µg/mL, the MPC/MIC [2] was 9.2 and the MIC [3] was 0.13 µg/mL (≈ 0.372 µM).
